Results reported in patent publication US6362225B1 (priority 1999, dated 2002).

Assays:
[1] = system: upper respiratory infections settled in the lungs; assay: Lysine solution by nebulizer directly into the lungs; assay type: in vivo, human; conditions: one test subject
From the text: Often upper respiratory infections settle in the lungs and can cause prolonged discomfort, coughing and heavy chest congestion.

sore throat = assay: Lysine nasal inhalation or throat spray for sore throat; assay type: in vivo, human; conditions: one test subject
From the text: A test subject used nasal inhalation of lysine every three hours to treat a sore throat and reported relief after one day.
Another test subject who has suffered from throat infections for many years used the lysine spray directly into the throat at the first sign of soreness on at least four occassions. The treatment was repeated every three to four hours for two days.

cold virus [2] = assay: Nasal spray of lysine after exposure to persons with severe colds; assay type: in vivo, human; conditions: nasal spray continued for at least three days after exposure to persons with severe colds
From the text: The administration of lysine in the form of a nasal spray was used by other test subjects after being exposed to persons with severe colds, that is persons who were frequently coughing and sneezing.

herpes simplex II = assay: Lysine nasal spray for herpes outbreaks; assay type: in vivo, human
canker sore = assay: Lysine solution applied directly to canker sores and cold sores; assay type: in vivo, human
From the text: Another test subject with a long history of canker sore outbreaks reported that once one canker sore appeared several more usually followed within a day or two. These sores were quite painful and often lasted from five to ten days. The subject was given the lysine solution and told to apply it directly to the lesion. […] The application was repeated every three or four hours until the canker sore was completely healed. […] Since this subject has been using the lysine solution the outbreaks of canker sores are infrequent and are healed very quickly.
As shown above, the use of lysine by targeting the infected areas may shorten the duration of the outbreak and may even prevent illnesses such as colds and sore throats if used directly after contact with an infected person or at the onset of symptoms. Essentially the use of the lysine solution or composition in the nose, mouth and/or lungs, or other specific areas of the body may represent a topical application of lysine to the infected area. Thus, the duration of an infection may be considerably lessened by applying lysine to that infected area.

[3] = cited from earlier work
cold virus [4] = assay: Nasal spray of lysine solution in test subjects with colds or flu; assay type: in vivo, human
[5] = ten test subjects, cold virus, […], 3500 mg lysine in 1.5 oz. 0.65% saline, spray twice in each nostril every three hours

Cl.NCCCC[C@H](N)C(=O)O [lysine, L-lysine monohydrochloride]
Onset of lessening of lung symptoms [1]: lessened almost immediately
Time until symptoms cleared up completely [1]: one to three
Time to relief of sore throat (sore throat; nasal inhalation every three hours): one
Development of full sore throat (sore throat; spray directly into the throat at first sign of soreness, every three to four hours for two days, at least four occasions): never occurred
Cold symptoms after exposure (cold virus [2]): never felt cold symptoms at all
Effect on herpes simplex II outbreak (herpes simplex II; one test subject with twenty year history, nasal spray every three hours for one day): stopped the outbreak
Response of genital herpes outbreaks (herpes simplex II; one test subject, nasal spray plus lysine tablets, compared with tablets alone): responded much faster than with the tablets alone
Prevention of herpes outbreaks (herpes simplex II; same test subject, regular use of the nasal spray): prevented herpes outbreaks to the point of almost eliminating them altogether
Secondary canker sore lesions (canker sore; one test subject, application repeated every three or four hours): no secondary lesions developed
Time until canker sore completely healed (canker sore; one test subject, application repeated every three or four hours, sores previously lasted five to ten days): three to five
Pain associated with canker sore (canker sore; one test subject, solution applied directly to the lesion): alleviated as soon as the solution was applied
Healing response of cold sores and canker sores (canker sore; solution applied directly, in contrast to ingestion of lysine tablets alone): fast healing response
Toxic levels ([3]; general statement): No toxic levels
Adverse side effects of ingested lysine ([3]; high doses ingested as tablets): gastric distress
Effectiveness of treatment at lengthened intervals (cold virus [4]; colds or flu, intervals lengthened to six or more hours, compared with one to four hours): considerably less effective
Number of subjects reporting relief obtained in 1 day (cold virus [4]; [5]): 5
Number of subjects reporting relief obtained in 2 days (cold virus [4]; [5]): 3
Number of subjects reporting relief obtained in 3 days (cold virus [4]; [5]): 2
